# “Also recorded” adds a separate entry of the source. Read-outs that look alike come from different tables or passages of the source.
# How the values were obtained:
# human neutrophils = type: cell-based
# [1] = tested on: human peripheral blood monocytes; type: cell-based
# HIV-1 = conditions: T lymphocyte tropic and monocyte tropic HIV-1; Lawless et al. 1996; cited from earlier work
# [2] = tested on: mock-transfected parental cells; test: Calcium mobilization in parental or mock-transfected rat basophil cell line; type: cell-based; conditions: rat basophil cell line without FPR
# Procedure: (§1) Calcium mobilization was assayed by incubating 107/ml of monocytes, neutrophils or ETFR cells in loading buffer containing 138 mM NaCl, 6 mM KCl, 1 mM CaCl2, 10 mM HEPES (pH 7.4), 5 mM glucose, 0.1% BSA with 5 μM Fura-2 (Sigma) at 37° C. for 30 min. The dye-loaded cells were washed and resuspended in fresh loading buffer. The cells were then transfered into quartz cuvettes ([…] in 2 ml) which were placed in a luminescence spectrometer LS50 B (Perkin-Elmer Limited, Beaconsfield, England). Stimulants at different concentrations were added in a volume of 20 μl to the cuvettes at indicated time points. The ratio of fluorescence at 340 and 380 nm wavelength was calculated using the FL WinLab program (Perkin Elmer).
# mock-transfected cells = test: Chemotaxis of mock-transfected cells; type: cell-based, rat; conditions: FIG. 3E
# HEK 293 cells = test: Calcium mobilization in parental or mock transfected HEK 293 cells; type: cell-based, human; conditions: control experiments
# Procedure: (FIGS. 8C1, 8C2, 8F1, and 8F2).
# as §1, with “monocytes, neutrophils, FPRL1” for “monocytes, neutrophils”, “ETFR transfectants” for “ETFR cells”, “then transferred” for “then transfered”
# neutrophils = test: Calcium mobilization (Fura-2) in human neutrophils; type: cell-based
# FPRL1 [3] = biological target: T1, FPRL1 (Homo sapiens, UniProt P25090); test: Chemotaxis of FPRL1/293 cells; type: cell-based; conditions: for migration / chemotaxis of FPRL1/293 cells: wide range of concentrations
# T1 construct: expressed in transfected cells; host or cells: human embryonic kidney (HEK) 293 cells, designated FPRL1/293
# T1 sequence (P25090 1-351): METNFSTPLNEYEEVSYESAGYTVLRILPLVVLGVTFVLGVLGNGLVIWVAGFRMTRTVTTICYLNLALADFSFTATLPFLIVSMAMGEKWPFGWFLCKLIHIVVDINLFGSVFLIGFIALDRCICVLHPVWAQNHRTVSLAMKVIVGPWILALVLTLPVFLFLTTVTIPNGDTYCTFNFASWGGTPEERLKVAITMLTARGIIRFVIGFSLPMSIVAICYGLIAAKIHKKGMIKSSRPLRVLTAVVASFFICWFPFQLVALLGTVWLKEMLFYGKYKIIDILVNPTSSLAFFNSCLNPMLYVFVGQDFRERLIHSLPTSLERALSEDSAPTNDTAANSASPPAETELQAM
# Procedure: The chemotactic response of cells transfected with a nucleic acid encoding FPR or FPRL1 was tested as another sensitive parameter to assess the receptor targets of T21/DP107. (Gong et al., J. Biol. Chem. 273: 4289 (1998); Gong et al., J. Biol. Chem. 272:11682 (1997); and Ben-Baruch et al., J. Biol. Chem. 270: 22123 (1995)). Accordingly, different concentrations of T21/DP107 were placed in the lower wells of a chemotaxis chamber and a cell suspension was placed in the upper wells. The upper and lower wells were separated by polycarbonate filters precoated with mouse collagen type I. After incubation, the cells that migrated across the filters were stained and counted. […] The CI (chemotaxis index), which represents the fold increase of leukocyte migration in response to T21/DP107 over control medium, was also determined. […] (FIG. 9B).
# Leukocytes, ETFR and FPRL1/293 cell migration was assessed using a 48-well microchemotaxis chamber technique as previously described. (Gong et al., J. Biol. Chem. 273: 4289 (1998); Gong et al., J. Biol. Chem. 272: 11682 (1997); and Kliger et al., J. Biol. Chem. 272: 13496 (1997)). Different concentrations of stimulants were placed in wells of the lower compartment of the chamber (Neuro Probe, Cabin John, Mass.), the cell suspension was seeded in wells of the upper compartment which was separated from the lower compartment by a polycarbonate filter (Osmonics, Livermore, Calif.; 5 μm-pore size for leukocytes, 10 μm pore-size for ETFR and FPRL1/293 cells). For CD3+ T lymphocytes, the filters were precoated with 20 μg/ml bovine fibronectin (Sigma). The filters for ETFR and FPRL1/293 cell migration were precoated with 50 μg/ml collagen type I (Collaborative Biomedical products, Bedford, Mass.) to favor the attachment of the cells. After incubation at 37° C. (90 min for monocytes, 60 min for neutrophils, 180 min for T cells and 300 min for ETFR or FPRL1/293 cells), the filters were removed, stained and the cells migrating across the filter were counted by light microscopy after coding the samples. […] The significance of the increase in cell migration was determined using Student's t test and CI≧2 was statistically significant compared to medium control (at least p<0.05).
# FPRL1 [4] = biological target: T1, FPRL1; type: cell-based
# Procedure: (Prossnitz and Ye, Pharmacol. Ther. 74: 73 (1997); Murphy, The N-formyl peptide chemotactic receptors, Chemoattractant ligands and their receptors. CRC Press, Boca Raton, p. 269 (1996); and Gao and M. Murphy, J. Biol. Chem. 268: 25395 (1993)).
# as §1, with “monocytes, neutrophils, FPRL1” for “monocytes, neutrophils”, “ETFR transfectants” for “ETFR cells”, “then transferred” for “then transfered”
# human monocytes = test: Calcium mobilization (Fura-2) in human monocytes; type: cell-based
# [5] = monocytes, pertussis toxin at 100 ng/ml for 30 min at 37° C. (FIG. 1B)
# [6] = monocytes, pertussis toxin at 100 ng/ml for 30 min at 37° C. (FIG. 6B)
compound,measurement,setting,value
pertussis toxin,inhibition of T20/DP178-induced migration by pretreatment of the cells,human neutrophils; neutrophils,completely inhibited
same,inhibition of T21/DP107-induced migration by pretreatment of the cells,human neutrophils; neutrophils,completely inhibited
same,inhibition of T20/DP178-induced migration by pretreatment of the cells,[1]; [5],completely inhibited
same,inhibition of T21/DP107-induced migration by pretreatment of the cells,[1]; [6],inhibition; also recorded: completely inhibited
CO[C@H]1[C@@H](OC)C[C@H](C)[C@@H](OC)C2=CC(=O)C=C(NC(=O)/C(C)=C/C=C\[C@H](OC)[C@@H](OC(N)=O)/C(C)=C/[C@@H]1C)C2=O [herbimycin A],inhibition of T20/DP178-induced migration by pretreatment of the cells,human neutrophils; neutrophils,not
same,inhibition of T21/DP107-induced migration by pretreatment of the cells,human neutrophils; neutrophils,not
same,inhibition of T20/DP178-induced migration by pretreatment of the cells,[1]; [5],not
same,inhibition of T21/DP107-induced migration by pretreatment of the cells,[1]; [6],not
cholera toxin,inhibition of T20/DP178-induced migration by pretreatment of the cells,human neutrophils,not
same,inhibition of T21/DP107-induced migration by pretreatment of the cells,human neutrophils,not
same,inhibition of T20/DP178-induced migration by pretreatment of the cells,[1],not
same,inhibition of T21/DP107-induced migration by pretreatment of the cells,[1],not
QNQQEKNEQELLELDKWASLWNWF [T914],anti-HIV-1 fusion activity,HIV-1,ineffective
"CSCC[C@H](NC=O)C(=O)N[C@@H](CC(C)C)C(=O)N[C@@H](Cc1ccccc1)C(=O)O [fMLP, N-formyl-methionyl-leucyl-phenylalanine]",Ca++ flux in parental or mock-transfected cells,[2],Neither peptide stimulated; also recorded: did not induce any
same,migration of mock-transfected cells,mock-transfected cells,did not induce migration
same,Ca++ mobilization in parental or mock transfected HEK 293 cells,HEK 293 cells,did not induce any
same,desensitizing effect on T20/DP178-induced Ca++ mobilization,"neutrophils; neutrophils, fMLP 100 nM, T20/DP178 100 nM",desensitizes; also recorded: marked desensitizing effect
same,desensitizing effect on T21/DP107-induced Ca++ mobilization,"neutrophils; neutrophils, high concentrations (≧1 μM) of fMLP, T21/DP107 1 μM",desensitizes; also recorded: partial desensitizing effect
same,migration across the filters (microscopy at 200× magnification),human neutrophils,significant migration
same,migration across the filters (microscopy at 200× magnification),"[1]; monocytes, 100 nM",significant migration
same,migration / chemotaxis of FPRL1 expressing cells,FPRL1 [3]; at concentrations as high as 50 μM (5×10−5 M),does not induce significant chemotaxis; also recorded: failed to induce significant migration
same,migration / chemotaxis of FPRL1/293 cells,FPRL1 [3],failed to migrate
same,desensitization of T21/DP107-induced Ca++ mobilization,FPRL1 [4],desensitizes
same,minimal effective concentration to induce Ca++ mobilization,FPRL1 [4],low μM range
same,desensitizing effect on T20/DP178-induced Ca++ mobilization,"human monocytes; monocytes, fMLP 100 nM, T20/DP178 100 nM",desensitizes; also recorded: marked desensitizing effect
same,desensitizing effect on T21/DP107-induced Ca++ mobilization,"human monocytes; monocytes, high concentrations (≧1 μM) of fMLP, T21/DP107 1 μM",desensitizes; also recorded: partial desensitizing effect
"CCCCC[C@H](O)/C=C/C=C\C=C\C=C\[C@@H](O)[C@@H](O)CCCC(=O)O [LXA4, lipoxin A4]",inhibition of T21/DP107 signaling,"neutrophils; phagocytes (neutrophils), commercially available LXA4 (Biomol)",nor did we observe inhibition
same,migration / chemotaxis of FPRL1/293 cells,FPRL1 [3],did not detect significant induction
same,migration / chemotaxis of FPRL1/293 cells,FPRL1 [3]; listed as lipoxin A4,not able to induce
same,induction of Ca++ mobilization in FPRL1 expressing cells,FPRL1 [4]; FPRL1/293 cells,did not detect significant induction
same,inhibition of T21/DP107 signaling,"FPRL1 [4]; FPRL1/293 cells, commercially available LXA4 (Biomol)",nor did we observe inhibition
same,induction of Ca++ mobilization in FPRL1 expressing cells,"FPRL1 [4]; FPRL1/293 cells, listed as lipoxin A4",not able to induce
same,inhibition of T21/DP107 signaling,"human monocytes; phagocytes (monocytes), commercially available LXA4 (Biomol)",nor did we observe inhibition

# — patent publication US6830893B2 (priority 1999, dated 2004)
